Article PMC5441612, “Oligopeptides as full-length New Delhi metallo-β-lactamase-1 (NDM-1) inhibitors” (PLoS ONE, 2017)
Residues, ends and D or L forms follow the SMILES beside them.

Legend:
[1] = test system: E. coli BL21 (DE3)/pET30a-NDM-1; experiment: MIC of β-lactam antibiotics by E-test method; type: cell-based; details: Escherichia coli, 24 h
Experimental: (§1) E. coli BL21(DE3) cells were transformed with the pET30a plasmid encoding the NDM-1 gene (Gen Bank ID: HQ162469). E. coli BL21(DE3)/pET30a-NDM-1 was grown overnight at 37°C in liquid Luria-Bertani (LB) broth containing 50μg/ml kanamycin, 100μg/ml ampicillin and 50μM Zn(NO3)2 to select for E. coli clones containing the plasmid of pET30a-NDM-1. Two strains, E. coli BL21 (DE3)/pET30a-NDM-1 overexpressing NDM-1 and P. aeruginosa isolated from Renmin Hospital of Wuhan University with blaNDM-1 confirmed by PCR (data not shown), were cultured overnight, respectively. The cultures were diluted 1:100, grown to an optical density at 600 nm (OD600) of ~0.6, and spread onto LB agar. After naturally drying for five minutes, E-test strips (AB Biodisk, Solna, Sweden) were applied to the ~150mm Mueller-Hinton (MH) (Tianhe Microbial Agents, Hangzhou, China) agar plates and grown for 24h at 35°C to 37°C without further intervention. The antibiotic strips respectively containing penicillin G, ampicillin, cephalothin, cefuroxime, ceftazidime, cefepime, meropenem, ertapenem, aztreonam were used for testing susceptibility. The results were obtained in accordance with the Clinical and Laboratory Standards Institute (CLSI) guidelines.

[2] = test system: P. aeruginosa with blaNDM-1; experiment: MIC of β-lactam antibiotics by E-test method; type: cell-based; details: Pseudomonas aeruginosa, 24 h
Experimental: as §1

[3] = test system: E. coli BL21 (DE3)/pET30a; experiment: MIC of β-lactam antibiotics by E-test method; type: cell-based; details: Escherichia coli, 24 h
E. coli BL21 (DE3) = experiment: MIC of β-lactam antibiotics by E-test method; type: cell-based; details: Escherichia coli, 24 h
[4] = test system: E. coli BL21 (DE3)/pET30a-NDM-1; experiment: Synergistic antibacterial effect of ertapenem combined with oligopeptide (twofold broth dilution); type: cell-based; details: ertapenem alone at 256 μg/ml; NDM-1 strain
Experimental: E. coli BL21 (DE3)/pET30a-NDM-1 overexpressing NDM-1 and a clinical isolate of P. aeruginosa with blaNDM-1 were also utilized to evaluate the bioactivities of oligopeptides, which reversed NDM-1-mediated β-lactam antibiotics resistance. Determination of antibacterial synergy was performed using a serial twofold dilutions method recommended by CLSI guidelines. E. coli BL21 (DE3)/pET30a was used as a control in the experiment. Minimum inhibitory concentrations (MICs) of the agents were determined by the twofold serial dilution with Mueller-Hinton (MH) broth (Shifeng Biotech Corp., Shanghai, China). For this assay, E. coli BL21 (DE3)/pET30a-NDM-1 was grown overnight in MH broth media containing 50μg/ml kanamycin at 37°C [23]. β-lactam antibiotic and oligopeptide at various concentrations were added to 120μL broth media of a 1:20 dilution of the overnight culture, resulting the final volume of 150μL [24]. The growth of bacterial cultures was set up in 96-well microplates, which incubated at 37°C with constant shaking continuously for 18 h and a reading at 630 nm was taken to determine the MICs of synergistic effect. The lowest antibiotic concentration preventing visible growth was deemed to be the MIC value. […] Every data of reading was repeated thrice, and each experiment mentioned above was performed at least two times.

full-length NDM-1 = full-length NDM-1 (Klebsiella pneumoniae, UniProt C7C422); experiment: biochemical; details: IC50 (Mean±SD), full-length NDM-1, ertapenem 80 μM as substrate, 15 min pre-incubation at 35°C
full-length NDM-1, sequence (C7C422 29-270 limits assumed): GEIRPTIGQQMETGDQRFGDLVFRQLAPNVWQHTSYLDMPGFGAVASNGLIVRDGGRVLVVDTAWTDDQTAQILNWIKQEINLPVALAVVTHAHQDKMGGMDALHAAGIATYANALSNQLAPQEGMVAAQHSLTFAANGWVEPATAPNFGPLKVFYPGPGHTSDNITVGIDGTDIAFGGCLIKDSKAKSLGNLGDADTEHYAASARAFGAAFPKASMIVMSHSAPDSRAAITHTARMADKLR
Experimental: The full-length NDM-1 enzyme was expressed and purified by a method from a previously published procedure. All the oligopeptides were synthesized by GL Biochem. (Shanghai), Ltd., China, with a purity of >95%. The target of NDM-1 enzyme was pre-incubated with the desired oligopeptide for 15min at 35°C before the assay by adding the inhibitor. The oligopeptides used for testing were dissolved in 10mM phosphate-buffered saline (PBS) buffer (pH7.0), containing dimethyl sulfoxide (DMSO) with the final concentration of 0.25% (V/V). […] Ertapenem (80μM) was used as report substrate. The hydrolysis of the substrate by the NDM-1 was detected by monitoring the variation in absorbance resulting from the opening of the β-lactam ring. All the determinations were made on a spectrophotometer (UV-1750, Shimadzu, Japan) connected to a personal computer. The enzymatic reactions were carried out in a total volume of 100μL. The reaction buffer contained 20mM HEPES buffer, pH7.3, 0.25M NaCl, 1mM 1,4-Dithio-DL-threitol (DTT) (Beinglay Biotech Corp., Wuhan, China), 50μM Zn(NO3)2 and 10mg/ml bovine serum albumin (BSA) preventing NDM-1 denaturation. The ultraviolet (UV) absorbance detector was set at 300 nm, a λ max for ertapenem. The IC50 values were determined more than three times by fitting the concentration dependence of residual enzyme activity to the nonlinear regression (curve fit) using GraphPad Prism (GraphPad Software, La Jolla, America).

Row | SMILES | MIC [1] | MIC [2] | MIC [3] | MIC (E. coli BL21 (DE3)) | growth in broth media containing ertapenem [4] | IC50 (full-length NDM-1)
1 | CC1(C)S[C@@H]2[C@H](NC(=O)[C@H](N)c3ccccc3)C(=O)N2[C@H]1C(=O)O [Ampicillin] | > 256 µg/mL | > 256 µg/mL | 8 µg/mL | 6 µg/mL |  | 
2 | C[C@H]1[C@H](NC(=O)/C(=N\OC(C)(C)C(=O)O)c2csc(N)n2)C(=O)N1S(=O)(=O)O [Aztreonam] | > 256 µg/mL | > 256 µg/mL | 0.064 µg/mL | 0.047 µg/mL |  | 
3 | CO/N=C(\C(=O)N[C@@H]1C(=O)N2C(C(=O)[O-])=C(C[N+]3(C)CCCC3)CS[C@H]12)c1csc(N)n1 [Cefepime] | > 64 µg/mL | > 64 µg/mL | 0.08 µg/mL | 0.08 µg/mL |  | 
4 | CO/N=C(\C(=O)N[C@@H]1C(=O)N2C(C(=O)O)=C(COC(C)=O)CS[C@H]12)c1csc(N)n1 [Cefotaxime] | > 256 µg/mL | > 256 µg/mL | 0.25 µg/mL | 0.125 µg/mL |  | 
5 | CC(C)(O/N=C(\C(=O)N[C@@H]1C(=O)N2C(C(=O)[O-])=C(C[n+]3ccccc3)CS[C@H]12)c1csc(N)n1)C(=O)O [Ceftazidime] | > 256 µg/mL | > 256 µg/mL | 0.25 µg/mL | 0.38 µg/mL |  | 
6 | CO/N=C(\C(=O)N[C@@H]1C(=O)N2C(C(=O)O)=C(COC(N)=O)CS[C@H]12)c1ccco1 [Cefuroxime] | > 256 µg/mL | 256 µg/mL | 3 µg/mL | 2 µg/mL |  | 
7 | CC(=O)OCC1=C(C(=O)O)N2C(=O)[C@@H](NC(=O)Cc3cccs3)[C@H]2SC1 [Cephalothin] | > 256 µg/mL | > 256 µg/mL | 4 µg/mL | 6 µg/mL |  | 
8 | C[C@@H](O)[C@H]1C(=O)N2C(C(=O)O)=C(S[C@@H]3CN[C@H](C(=O)Nc4cccc(C(=O)O)c4)C3)[C@H](C)[C@H]12 [Ertapenem] | > 32 µg/mL | > 32 µg/mL | 0.094 µg/mL | 0.094 µg/mL | still able to grow | 
9 | C[C@@H](O)[C@H]1C(=O)N2C(C(=O)O)=C(S[C@@H]3CN[C@H](C(=O)N(C)C)C3)[C@H](C)[C@H]12 [Meropenem] | > 32 µg/mL | > 32 µg/mL | 0.047 µg/mL | 0.032 µg/mL |  | 
10 | N[C@@H](CS)C(=O)N[C@@H](Cc1c[nH]cn1)C(=O)O [Oligopeptide 1, Cys-His] (H-Cys-His-OH) |  |  |  |  |  | 182 ± 14 µM
11 | N[C@@H](CS)C(=O)N[C@@H](Cc1ccccc1)C(=O)O [Oligopeptide 2, Cys-Phe] (H-Cys-Phe-OH) |  |  |  |  |  | 113 ± 9 µM
12 | N[C@@H](CS)C(=O)N[C@@H](Cc1ccc(O)cc1)C(=O)O [Oligopeptide 3, Cys-Tyr] (H-Cys-Tyr-OH) |  |  |  |  |  | > 300 µM
13 | CC(C)[C@H](NC(=O)[C@@H](N)CS)C(=O)O [Oligopeptide 4, Cys-Val] (H-Cys-Val-OH) |  |  |  |  |  | 235 ± 18 µM
14 | N[C@@H](CS)C(=O)N[C@@H](CC(=O)O)C(=O)O [Oligopeptide 5, Cys-Asp] (H-Cys-Asp-OH) |  |  |  |  |  | 68 ± 5 µM
15 | N[C@@H](CS)C(=O)NCC(=O)N[C@@H](Cc1c[nH]cn1)C(=O)O [Oligopeptide 6, Cys-Gly-His] (H-Cys-Gly-His-OH) |  |  |  |  |  | 263 ± 21 µM
16 | N[C@@H](CS)C(=O)NCC(=O)N[C@@H](Cc1ccccc1)C(=O)O [Oligopeptide 7, Cys-Gly-Phe] (H-Cys-Gly-Phe-OH) |  |  |  |  |  | 144 ± 13 µM
17 | N[C@@H](CS)C(=O)NCC(=O)N[C@@H](Cc1ccc(O)cc1)C(=O)O [Oligopeptide 8, Cys-Gly-Tyr] (H-Cys-Gly-Tyr-OH) |  |  |  |  |  | > 300 µM
18 | CC(C)[C@H](NC(=O)CNC(=O)[C@@H](N)CS)C(=O)O [Oligopeptide 9, Cys-Gly-Val] (H-Cys-Gly-Val-OH) |  |  |  |  |  | 249 ± 21 µM
19 | N[C@@H](CS)C(=O)NCC(=O)N[C@@H](CC(=O)O)C(=O)O [Oligopeptide 10, Cys-Gly-Asp] (H-Cys-Gly-Asp-OH) |  |  |  |  |  | > 300 µM
20 | CC1(C)S[C@@H]2[C@H](NC(=O)Cc3ccccc3)C(=O)N2[C@H]1C(=O)O [Penicillin G] | > 32 µg/mL | > 32 µg/mL | 12 µg/mL | 12 µg/mL |  | 
